Ki data for six compounds are collected here from BindingDB's records for doi:10.1021/jm001111b (Louis Pasteur University, 2001).

This assay is described as follows: Displacement of [3H]clonidine from imidazoline receptor I-1 of bovine chromaffin cell membranes. For orientation: Loss of bound radioactivity is the signal in a displacement assay; it reports binding, not function.
As a reminder, the Ki is the equilibrium dissociation constant of an inhibitor or competing ligand from its target. As to `CC1CN=C(NC(C2CC2)C2CC2)C1` (stereo unspecified), the affinity corresponds to a Ki of 646 nM. Then `CC1CCC(NC(C2CC2)C2CC2)=N1` (stereo unspecified), with 1580 nM; and `C1CN=C(NC(C2CC2)C2CC2)C1`, with 513 nM. The compound `CC1CC(NC(C2CC2)C2CC2)=NC1C` (stereo unspecified) gave a Ki of 537 nM.

The compound `CCC1CCC(NC(C2CC2)C2CC2)=N1` (stereo unspecified) had an inhibition constant Ki of 170 nM. In the case of `C1COC(NC(C2CC2)C2CC2)=N1` [CHEBI:8862], the inhibition constant (Ki) is 74 nM.
